Test results published in PubChem BioAssay AID179 (DTP/NCI, 2004).
Several values for one entry are separate records, joined by “and”; a condition that tells them apart may be missing. Identical values can stand only once. Activity calls are given as the source filed them.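 How the source made its calls: active means compounds giving half or more protection of infected cells from virus-caused growth loss, again on retest; inactive means the rest.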

Tested on: CEM cells HIV-1 protection, formazan growth assay
Assay: NCI AIDS Antiviral Assay
Details: for IC50: measured here: growth of uninfected CEM cells
Method in brief: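 Screen of anti-HIV-1 activity in human CEM cells using a formazan-based growth measurement at five drug concentrations. Hits with 50% or greater protection were repeated, and confirmation required reproducible complete protection.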

## COC(=O)NC1=Nc2ccccc2N(C(=O)Oc2ccccc2)S1
  EC50: > 75.9 µM
  IC50: 9.33 µM

## O=c1[nH]c2cc(Cl)ccc2nc1/C(=N\O)C(O)c1cccc([N+](=O)[O-])c1 (stereo not given)
  EC50: > 661 µM
  IC50: 646 µM

## NC1C2(CCCCCC2)NC(=O)C12CCCCCC2 (stereo not given)
  outcome: inactive

## Cc1ccc(N2C(N)=C(C#N)C(C#N)(C#N)C2c2ccccc2)cc1 (stereo not given)
  EC50: > 200 µM
  IC50: 2.82 µM

## COC(=O)C1(c2ccc(N(C)C)cc2OC)CCCN(C(=O)Oc2ccccc2[N+](=O)[O-])CCc2c1[nH]c1ccccc21 (stereo not given)
  EC50: > 200 µM
  IC50: > 200 µM

## Nc1ccc(/C=C/c2ccc(NS(=O)(=O)c3ccnc4c(O)c(C(=O)O)ccc34)cc2S(=O)(=O)O)c(S(=O)(=O)O)c1
  EC50: 69.2 µM
  IC50: > 100 µM

## CCN(CC)CCN1C=CC(C)C(C(=O)O)C1C(N)=O (stereo not given)
  EC50: > 100 µM
  IC50: > 100 µM

## CCOC(=O)C1=C(C)C(C(=O)OC)[C@]2(C)C(C(=O)OCC)=C(O)C(C(=O)OC)[C@]12C (stereo not given in full)
  EC50: > 126 µM
  IC50: > 126 µM

## CC(=O)c1ccc2c(c1)oc(=O)n2CCN(C)C
  EC50: > 200 µM
  IC50: 141 µM

## CCOC(=O)CN1C(=O)c2cc([N+](=O)[O-])cc3cc([N+](=O)[O-])cc(c23)C1=O
  outcome: inactive

## CC(C)[Si]1(C(C)C)OCC2OC3(CO)C(Oc4nc(=O)ccn43)C2O[Si](C(C)C)(C(C)C)O1 (stereo not given)
  EC50: > 200 µM
  IC50: 18.6 µM

## CCN(CC)c1ccc2cc(C(=O)Nc3ccccc3)c(=N)oc2c1
  EC50: > 100 µM
  IC50: > 100 µM

## CCN(C(=O)N[C@@H](Cc1ccccc1)C(=O)N[C@@H](CC(C)C)C(=O)OC)c1ccccc1
  EC50: 5.01 µM
  IC50: 28.8 µM

## CCOC(=O)/C(C#N)=C1/C(O)=C(C(=O)OC)C(C(=O)OC)=C1C(=O)OC
  outcome: inactive

## Nc1ccc2c(O)c(N=Nc3ccc(-c4ccc(N=Nc5c(S(=O)(=O)O)cc6cc(S(=O)(=O)O)c(N=Nc7cc(Cl)ccc7Cl)c(N)c6c5O)cc4)cc3)c(S(=O)(=O)O)cc2c1
  outcome: inactive

## COc1cc2[nH]c(=O)[nH]c2c2c(C)c[nH]c12
  EC50: > 200 µM
  IC50: > 200 µM

## CNc1nc(OC)c2c(n1)[n+](C)cn2C
  EC50: > 200 µM
  IC50: 61.7 µM

## CC1=N/C(=C\c2ccccc2)C(=O)O1
  EC50: > 20 µM
  IC50: > 20 µM

## Cc1cccc(Nc2nc(N)nc(N)c2N=O)c1
  EC50: > 200 µM
  IC50: 20.9 µM

## Cc1nc2ccc(NC3OC(CO)C(O)C(O)C3O)cc2c(=O)n1-c1ccccc1 (stereo not given)
  EC50: > 200 µM
  IC50: > 200 µM

## CSCC1CC(c2ccc(Cl)cc2)=NO1 (stereo not given)
  EC50: > 107 µM
  IC50: > 107 µM

## N#C/C(=C\NC(=S)NC1CCCCC1)c1nc2ccccc2s1
  EC50: > 200 µM
  IC50: 41.7 µM

## C[CH2][Ge]([CH2]C)([CH2]C)[O]C(=O)C(OC(C)=O)c1ccccc1 (stereo not given)
  EC50: > 251 µM
  IC50: 195 µM

## O=C1OC(=O)C2C1C(c1ccc(Cl)cc1)N1C3C(=O)OC(=O)C3C(c3ccc(Cl)cc3)N21 (stereo not given)
  EC50: > 28.8 µM
  IC50: > 28.8 µM

## CC(=O)O[C@H]1[C@H](OC(=O)CC(C)(O)CC(=O)O)C[C@]2(C)C3=C(CCC2C1(C)C)[C@]1(C)CC[C@H]([C@H]2CC[C@H](C(C)(C)O)OC2O)[C@@]1(C)[C@@H](O)C3 (stereo not given in full)
  EC50: > 100 µM
  IC50: 49 µM

## O=[N+]([O-])c1ccc(C2=NOC3COC4C=CC=CC4OCC23)cc1 (stereo not given)
  EC50: > 30.2 µM
  IC50: > 30.2 µM

## N#CCN1C(=O)c2cc([N+](=O)[O-])cc3cc([N+](=O)[O-])cc(c23)C1=O
  outcome: inactive

## CNS(=O)(=O)NN(C)S(=O)(=O)c1ccccc1
  EC50: > 891 µM
  IC50: 148 µM

## C/C(CCN(C)C)=N\OC(=O)c1ccccc1
  EC50: > 200 µM
  IC50: > 200 µM

## CC(=O)N(C(C)=O)n1c(-c2ccccc2)n[nH]c1=O
  EC50: > 200 µM
  IC50: > 200 µM

## O=C(c1ccc(Cl)cc1)N(C(=S)N1CCN(c2ccccc2)CC1)c1ccccc1
  EC50: > 12 µM
  IC50: 11.2 µM

## O=C1c2cc3c(cc2CC12Cc1cc4c(cc1C2)CCC4)CCC3
  EC50: > 200 µM
  IC50: > 200 µM

## CC1=CCC2(C#N)CCC1C2=O (stereo not given)
  EC50: > 251 µM
  IC50: > 251 µM

## COc1cc2c(Cc3cc(OCc4ccccc4)ccc3N)nccc2c(OC)c1OC
  outcome: inactive

## O=[N+]([O-])/C(C(Cl)=C(Cl)Cl)=C(/Cl)SCc1ccccc1
  EC50: > 200 µM
  IC50: 11 µM

## COC1(OC)CC2C(=O)N(Cc3ccccc3)C1C(S(=O)(=O)c1ccccc1)C2C(C)S(=O)(=O)c1ccccc1 (stereo not given)
  EC50: > 23.4 µM
  IC50: > 23.4 µM

## CC(C)C(N)=Nc1ccc(Cl)c(Cl)c1
  EC50: > 200 µM
  IC50: 72.4 µM

## CC(C)(C)c1onc2c1C(=O)c1ccccc1-2
  EC50: > 200 µM
  IC50: 117 µM

## Cc1ccc([P+](Cc2ccc([N+](=O)[O-])cc2)(c2ccc(C)cc2)c2ccc(C)cc2)cc1
  EC50: > 200 µM
  IC50: 3.63 µM

## CC(C)C1COC(C(C)(C)C2=N[C@@H](C(C)C)CO2)=N1 (stereo not given in full)
  EC50: > 251 µM
  IC50: 135 µM

## CC1OC(Oc2c(-c3ccc(O)c(O)c3)oc3cc(O)cc(O)c3c2=O)C(O)C(O)C1O (stereo not given)
  outcome: inactive

## O=C(O)CCCCCCCCCCCc1ccccc1
  EC50: > 200 µM
  IC50: 18.6 µM

## N#CN=C(N)N
  outcome: inactive

## COc1cc2c(c(OC)c1OC)C(=O)[C@H](O)[C@H]2NC(N)=O
  EC50: > 200 µM
  IC50: 105 µM

## O=C(O)C12CC3CC(CC(F)(C3)C1)C2
  EC50: > 912 µM
  IC50: > 912 µM

## CCOC(=O)c1[nH]n(-c2ccccc2)c(=O)c1/C=N/C(=S)NCc1ccccc1
  EC50: > 200 µM
  IC50: 44.7 µM

## CC(C)c1cccc(C(C)C)c1NC(=O)CCC(=O)NN
  EC50: > 324 µM
  IC50: > 324 µM

## CCCc1cc(=O)oc2c3c(cc(OC(C)C)c12)O[C@H](C)[C@@H](C)C3=O
  EC50: 77.6 µM
  IC50: 120 µM

## c1ccc2c(c1)cc1c3[nH]c4ccccc4c3ccn21
  EC50: > 200 µM
  IC50: 6.76 µM

## CCCCNC(=S)/N=C/c1c(O)cc(C)oc1=O
  EC50: > 200 µM
  IC50: > 200 µM

## NC(=O)c1ccc([As](=O)(O)O)cc1N
  EC50: > 200 µM
  IC50: > 200 µM

## O=c1[nH]c2ccc([N+](=O)[O-])cc2nc1/C(=N/Nc1ccccc1)C(O)c1ccco1 (stereo not given)
  EC50: > 437 µM
  IC50: 275 µM

## O=C1OCc2c1cc1cc3c(cc1c2-c1ccc2c(c1)OCO2)OCO3
  outcome: inactive

## CC1=Nc2ccccc2NC2(C1)C(C1COC(C)(C)O1)OC1OC(C)(C)OC12 (stereo not given)
  outcome: inactive

## COc1ccc(CC2NCCc3cc(OC)c(OC)cc32)cc1 (stereo not given)
  EC50: > 794 µM
  IC50: 138 µM

## O=S(=O)(Nc1nc2ccccc2n1S(=O)(=O)c1ccccc1)c1ccccc1
  EC50: 81.3 µM
  IC50: 97.7 µM

## COc1c(Cl)cc(C(=CCC(=O)O)c2cc(Cl)c(OC)c(C(=O)O)c2)cc1C(=O)O
  EC50: 30.2 µM
  IC50: > 200 µM

## Cc1ccc2c(c1C)CC1(Cc3c(ccc4c3CCC4)C1=O)C2=O (stereo not given)
  EC50: > 100 µM
  IC50: > 100 µM

## CC(=O)OC12c3ccccc3C(c3ccccc31)C1C(=O)N(c3ccccn3)C(=O)C12 (stereo not given)
  EC50: > 200 µM
  IC50: > 200 µM

## Cc1ccc(N2CC(=O)N3CCCC(C)N3C(=O)C2)cc1 (stereo not given)
  EC50: > 200 µM
  IC50: 174 µM

## O=NC1C(=O)NC(=O)NC1=O
  EC50: > 200 µM
  IC50: > 200 µM

## CCc1ccc(/C(C#N)=C/c2ccc(N(C)CCC#N)cc2)cc1
  EC50: > 200 µM
  IC50: 3.55 µM

## O=c1c(Cl)c(Cl)cnn1CCCl
  EC50: > 1100 µM
  IC50: 1.29 µM

## CCN(CC)CC1CCCCCCCCCCC1=O (stereo not given)
  outcome: inactive

## Cc1cn(C2CC(N=[N+]=[N-])C(COC(=O)CCCCCCCCCCCc3ccccc3)O2)c(=O)[nH]c1=O (stereo not given)
  EC50: 0.0955 µM
  IC50: 89.1 µM

## CC(C)(C)c1nc2c(o1)C(=Nc1ccc(F)cc1)c1ccccc1C2=O
  outcome: inactive

## COc1cc(C)cc2c1c(=O)c1ccccc1n2C
  EC50: > 200 µM
  IC50: 38.9 µM

## Cc1[nH]c(-c2ccccc2)c(O)c1C(=O)OC1CC(C)CCC1C(C)C (stereo not given)
  EC50: > 200 µM
  IC50: 23.4 µM

## O=C(O)c1cnc2c(ccc3[nH]cccc32)c1=O
  EC50: > 75.9 µM
  IC50: > 75.9 µM

## CC1=C(C(=O)Nc2ccccc2)C2(CCCCC2)C(C#N)=C(SCC(=O)Nc2ccc(Br)cc2)N1
  EC50: > 200 µM
  IC50: 12.3 µM

## CCCCCC1=CC2C(=O)NC(=O)NC12 (stereo not given)
  EC50: > 47.9 µM
  IC50: > 47.9 µM

## CC(CCC#CC(=O)O)OC1CCCCO1 (stereo not given)
  EC50: > 200 µM
  IC50: > 200 µM

## CN(C)CCOCn1nnc2ccccc21
  outcome: inactive

## CC[C@@]1(O)C(=O)OCc2c1cc1n(c2=O)Cc2cc3c(OC)cccc3nc2-1
  EC50: > 0.1 µM
  IC50: 0.0141 µM

## COC(=O)CCC1=C(C)c2cc3[n-]c(cc4nc(cc5[n-]c(cc1n2)c(CCC(=O)OC)c5C)C(C(C)=O)=C4C)c(C(C)=O)c3C.[Ni+2]
  EC50: > 100 µM
  IC50: > 100 µM

## C(#CCN1CCCC1)CCCN1CCCC1
  EC50: > 200 µM
  IC50: > 200 µM

## Cc1ccc(C(=O)Oc2ccccc2)cc1N=NN(C)C
  EC50: > 25.7 µM
  IC50: > 25.7 µM

## O=C1Oc2ccccc2C(=O)/C1=C/N1C(=O)/C(=C/c2ccc3c(c2)OCO3)SC1=S
  EC50: > 200 µM
  IC50: 20.4 µM

## CC1=CC2(C)C=C(C)C3(OC(c4ccccc4)=C(C#N)C3=N2)C1=O (stereo not given)
  EC50: > 70.8 µM
  IC50: 34.7 µM

## C=C1CN(S(=O)(=O)c2ccc(C)cc2)CCCN(C(C)C)CCCN(S(=O)(=O)c2ccc(C)cc2)C1
  EC50: > 200 µM
  IC50: 6.31 µM

## COC(=O)C1=CN=C(C(=O)OC)NN1
  EC50: > 1260 µM
  IC50: 537 µM

## CCCCCCCCCCCCCCCC(=O)OCC1CCCN2CCCCC12 (stereo not given)
  EC50: > 200 µM
  IC50: > 200 µM

## CN(C)CCNS(=O)(=O)c1ccc(N)cc1
  EC50: > 200 µM
  IC50: > 200 µM

## Cc1cn(C2CC(N(C)O)C(CO)O2)c(=O)[nH]c1=O (stereo not given)
  EC50: 31.6 µM and > 200 µM
  IC50: > 200 µM and 33.1 µM

## CCOP(=O)(OCC)/C(C#N)=C/C=C/c1ccco1
  EC50: > 646 µM
  IC50: 148 µM

## Cc1cc(NS(=O)(=O)c2ccc(NC(=O)c3ccc(Cl)c4c(Nc5ccc(S(N)(=O)=O)cc5)c5ccccc5nc34)cc2)no1
  EC50: > 38.9 µM
  IC50: 26.3 µM

## C(=C\CSc1ccccc1)/CSc1ccccc1
  EC50: > 13.8 µM
  IC50: > 13.8 µM

## Cc1ccc(C[N+](C)(C)N)cc1C
  EC50: > 200 µM
  IC50: > 200 µM

## Cc1cn(C2OC(C)(CO)C(O)C2O)c(=O)[nH]c1=O (stereo not given)
  EC50: > 912 µM
  IC50: > 912 µM
